IC50 data for 31 compounds are collected here from patent publication US20070078263A1, “BIARYL SUBSTITUTED HETEROCYCLE INHIBITORS OF LTA4H FOR TREATING INFLAMMATION” (deCODE Chemistry, Inc., priority 2005, published 2007).

Molecules are shown by their SMILES. Structures can show the parent of a compound that is named as a salt. Where two headings read alike, the source gives them in different places. Where only a bound is given, the exact number is not on record here.

One assay concerns human whole blood. The assay is described as follows: Ex vivo assay testing inhibitory activity in human whole blood after stimulation with calcium ionophore (LTB4 ELISA).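 Further: heparinized human blood preincubated 15 min at 37 °C with compound, then ionomycin-stimulated for 30 min, LTB4 in plasma supernatant quantified by ELISA.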 The assay is classed as cell-based. Conditions: Ionomycin 20 μM, read-out: hWBIC50.
The next assay addresses T1, human LTA4 hydrolase (Homo sapiens, UniProt P09960).
T1 construct: A human LTA4 hydrolase full-length cDNA clone (NM 000895) was purchased; His tag (6xHis of vector pDEST17); made in house; host or cells: Escherichia coli BL21-AI
T1 sequence (P09960 1-611): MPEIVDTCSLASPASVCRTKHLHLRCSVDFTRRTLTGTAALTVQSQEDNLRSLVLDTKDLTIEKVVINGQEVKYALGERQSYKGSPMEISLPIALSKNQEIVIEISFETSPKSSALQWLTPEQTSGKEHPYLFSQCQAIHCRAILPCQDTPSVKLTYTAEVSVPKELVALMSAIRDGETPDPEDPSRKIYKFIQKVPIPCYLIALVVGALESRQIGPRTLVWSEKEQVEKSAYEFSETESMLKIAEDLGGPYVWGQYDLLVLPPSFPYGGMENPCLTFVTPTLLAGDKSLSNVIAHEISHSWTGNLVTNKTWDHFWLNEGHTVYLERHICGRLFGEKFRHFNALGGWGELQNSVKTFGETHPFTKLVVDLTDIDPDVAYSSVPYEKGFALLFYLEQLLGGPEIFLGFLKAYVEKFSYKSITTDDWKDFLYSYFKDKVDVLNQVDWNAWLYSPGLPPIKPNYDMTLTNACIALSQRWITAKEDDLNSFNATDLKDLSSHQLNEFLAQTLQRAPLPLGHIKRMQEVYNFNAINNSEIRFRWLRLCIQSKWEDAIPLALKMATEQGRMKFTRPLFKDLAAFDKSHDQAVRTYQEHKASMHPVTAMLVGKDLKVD
The assay is described as follows: In vitro assay testing inhibitory activity against purified recombinant human LTA4 hydrolase (LTB4 formed, LC-MS/MS).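 Further: 200 nM enzyme preincubated 10 min at room temperature with serial inhibitor dilutions in pH 8.0 Tris buffer with BSA and 10% DMSO, then 2 µM LTA4 added.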 Format: biochemical.

The mark [1] stands for this setting: recombinant human LTA4 hydrolase 200 nM, LTA4 2 μM, read-out: AvgIC50.

Text for human LTA4 hydrolase: (1) In vitro assay testing inhibitory activity against purified recombinant human LTA4 hydroase. […] The gene was amplified by polymerase chain reaction and transferred via pDONR201 into the bacterial expression vector pDEST17 by recombination (both plasmids from Invitrogen, Carlsbad, Calif.). The resulting construct was transformed into Escherichia coli BL21-AI (Invitrogen), and expression was induced by chemical induction with arabinose. The recombinant enzyme was purified by chromatography on an FPLC system (Amersham Biosciences, Uppsala, Sweden) using immobilized metal affinity chromatography (Ni-NTA Superflow, Qiagen, Hilden, Germany) and anion exchange chromatography (MonoQ HR 10/10, Amersham Biosciences).
The compounds of the invention were incubated in a series of dilutions with 200 nM of recombinant enzyme in assay buffer (100 mM Tris-HCl, 100 mM NaCl, 5 mg/ml fatty-acid free BSA, 10% DMSO, pH 8.0) for 10 min at room temperature to allow binding between LTA4 hydrolase and the inhibitors. LTA4 was prepared by alkaline hydrolysis of LTA4 methyl ester (Biomol, Plymouth Meeting, Pa., or Cayman Chemicals, Ann Arbor, Mich.). A solution of 10 μg of the ester was dried under a nitrogen stream and redissolved in 60 μl of a solution of 80% acetone and 20% 0.25 M NaOH. After incubation for 40 min at room temperature the resulting approximately 500 μM tock of LTA4 was kept at −80° C. for no more than a few days prior to use.
Immediately before the assay, LTA4 was diluted to a concentration of 10 μM in assay buffer (without DMSO) and added to the reaction mixture to a final concentration of 2 μM to initiate the enzyme reaction. […] The samples were then kept at 4° C. overnight to complete protein precipitation and centrifuged for 15 min at 1800 g.
Experimental for human whole blood: (2) Ex vivo assay testing inhibitory activity in human whole blood after stimulation with calcium ionophor.
Human blood was collected in heparin-containing Vacutainer tubes. […] Then 4 μl of a series of compound dilutions (in DMSO) were added, followed by a 15 min incubation at 37° C. with gentle shaking. After that, blood samples were stimulated by adding Ionomycin (Calbiochem) to a final concentration of 20 μM. After another incubation at 37° C. for 30 min, samples were centrifuged for 5 min at 1800 g and 4° C. Supernatants were taken and LTB4 concentrations were determined using a commercially available enzyme-linked immunosobentassay (R&D Systems, Minneapolis, Minn.) according to the manufacturer's instructions.

Regarding `Clc1ccc(Oc2ccc(OC[C@@H]3CCCCN3)cc2)cc1` [Example 56, (S)-2-[4-(4-Chloro-phenoxy)-phenoxymethyl]-piperidine hydrochloride], the IC50 with human whole blood and on human LTA4 hydrolase (setting [1]) was under 5 µM in each case.

On to `c1ccc(-c2ccc(Cc3ccc(OC[C@H]4CCCN4)cc3)s2)cc1` [Example 159, (R)-2-[4-(5-Phenyl-thiophen-2-ylmethyl)-phenoxymethyl]-pyrrolidine hydrochloride salt], for which the IC50 in the assay with human whole blood and at human LTA4 hydrolase (setting [1]) was under 5 µM each time.

Regarding `O=C(O)CCCN1CCC[C@H]1COc1ccc(Cc2ccc(Cl)cc2)cc1` [Example 21, 4-{(S)-2-[4-(4-Chloro-benzyl)-phenoxymethyl]-pyrrolidin-1-yl}-butyric acid hydrochloride], the IC50 in the assay on human whole blood and on human LTA4 hydrolase (setting [1]) was under 5 µM each time.

Take `c1ccc2sc(Cc3ccc(OC[C@H]4CCCN4)cc3)nc2c1` [Example 104, 2-[4-((R)-1-Pyrrolidin-2-ylmethoxy)-benzyl]-benzothiazole-hydrogen chloride salt]: the IC50 in the assay on human whole blood and on human LTA4 hydrolase (setting [1]) was under 5 µM each time.

Regarding `O=C(O)CCCN1CCC[C@@H]1COc1ccc(Oc2ccc(-c3cnco3)cc2)cc1` [Example 88, 4-{(R)-2-[4-(4-Oxazol-5-yl-phenoxy)-phenoxymethyl]-pyrrolidin-1-yl}-butyric acid], the IC50 in the assay with human whole blood and on human LTA4 hydrolase (setting [1]) was under 5 µM each time.

Consider `c1ccc(Oc2ccc(OCC3CCCCN3)cc2)cc1` (racemic) [Example 74, (+/−)-2-[(4-phenoxyphenoxy)methyl]-piperidine hydrochloride], for which the IC50 in the assay on human whole blood and on human LTA4 hydrolase (setting [1]) was under 5 µM throughout.

For `c1cc(-c2ccc(Cc3ccc(OC[C@H]4CCCN4)cc3)cc2)co1` [Example 108, (R)-2-[4-(3-Furan-benzyl)-phenoxymethyl]-pyrrolidine hydrogen chloride salt], the IC50 with human whole blood and at human LTA4 hydrolase (setting [1]) was under 5 µM each time.

With `c1cnn(-c2ccc(Oc3ccc(OC[C@H]4CCCN4)cc3)cc2)c1` [Example 133, 1-{4-[4-((R)-1-Pyrrolidin-2-ylmethoxy)-phenoxy]-phenyl}-1H-pyrazole, hydrogen chloride salt], the IC50 in the assay on human whole blood was under 5 µM; on human LTA4 hydrolase (setting [1]), 5 to 20 µM.

Consider `c1ccc(Cc2ccc(OC[C@H]3CCCCN3)cc2)cc1` [Example 51, (R)-2-(4-Benzyl-phenoxymethyl)-piperidine hydrochloride], for which the IC50 with human whole blood and at human LTA4 hydrolase (setting [1]) was under 5 µM each time.

In the case of `c1coc(-c2ccc(Cc3ccc(OC[C@H]4CCCN4)cc3)cc2)c1` [Example 109, (R)-2-[4-(2-Furan-benzyl)-phenoxymethyl]-pyrrolidine hydrogen chloride salt], the IC50 in the assay with human whole blood and at human LTA4 hydrolase (setting [1]) was under 5 µM each time.

Regarding `O=C(O)CCCN1CCC[C@@H]1COc1ccc(Cc2ccc(-c3ccsc3)cc2)cc1` [Example 112, 4-{(R)-2-[4-(4-Thiophen-3-yl-benzyl)-phenoxymethyl]-pyrrolidin-1-yl}-butyric acid hydrogen chloride salt], the IC50 with human whole blood and at human LTA4 hydrolase (setting [1]) was under 5 µM each time.

For the compound `Brc1ccc(Cc2ccc(OC[C@H]3CCCN3)cc2)cc1` [Example 105, (R)-2-[4-(4-Bromo-benzyl)-phenoxymethyl]-pyrrolidine hydrogen chloride salt], the IC50 with human whole blood and at human LTA4 hydrolase (setting [1]) was under 5 µM in each case.

Turning to `O=C(O)CCCN1CCC[C@@H]1COc1ccc(Oc2ccc(-n3cccn3)cc2)cc1` [Example 134, 4-{(R)-2-[4-(4-Pyrazol-1-yl-phenoxy)-phenoxymethyl]-pyrrolidin-1-yl}-butyric acid], the IC50 is under 5 µM in the assay with human whole blood and 5 to 20 µM at human LTA4 hydrolase (setting [1]).

`c1ccc(Oc2ccc(OC[C@@H]3CCCCN3)cc2)cc1` [Example 52, (S)-2-(4-Phenoxy-phenoxymethyl)-piperidine hydrochloride]: the IC50 in the assay on human whole blood and at human LTA4 hydrolase (setting [1]) was under 5 µM throughout.

As for `COC(=O)CCCN1CCCC[C@H]1COc1ccc(Oc2ccc(Cl)cc2)cc1` [Example 60, 4-{(S)-2-[4-(4-Chloro-phenoxy)-phenoxymethyl]-piperidin-1-yl}-butyric acid methyl ester], the IC50 in the assay with human whole blood and at human LTA4 hydrolase (setting [1]) was under 5 µM each time.

Take `c1ccc(COc2ccc(OC[C@H]3CCCN3)cc2)cc1` [Example 90, (R)-2-(4-Benzyloxy-phenoxymethyl)-pyrrolidine hydrogen chloride salt]: the IC50 in the assay with human whole blood and at human LTA4 hydrolase (setting [1]) was under 5 µM throughout.

Consider `O=C(O)CCCN1CCC[C@@H]1COc1ccc(Cc2ccccc2)cc1` [Example 10, 4-[(R)-2-(4-benzyl-phenoxymethyl)-pyrrolidin-1-yl]-butylic acid hydrochloride], for which the IC50 with human whole blood and on human LTA4 hydrolase (setting [1]) was under 5 µM in each case.

For `c1ccc2sc(Oc3ccc(OC[C@H]4CCCN4)cc3)nc2c1` [Example 100, (R)-2-[4-(Benzothiazol-2-yloxy)-phenoxymethyl]-pyrrolidine-Hydrogen chloride salt], the IC50 in the assay on human whole blood and at human LTA4 hydrolase (setting [1]) was under 5 µM each time.

Consider `Fc1ccc(Oc2ccc(OC[C@@H]3CCCCN3)cc2)cc1` [Example 57, (S)-2-[4-(4-Fluoro-phenoxy)-phenoxymethyl]-piperidine hydrochloride], for which the IC50 with human whole blood and on human LTA4 hydrolase (setting [1]) was under 5 µM in each case.

Take `c1ccc(Cc2ccc(OC[C@H]3CCCN3Cc3cccnc3)cc2)cc1` [Example 5, 3-[(R)-2-(4-benzyl-phenoxymethyl)-pyrrolidin-1-ylmethyl]-pyridine]: the IC50 with human whole blood and on human LTA4 hydrolase (setting [1]) was under 5 µM each time.

On to `O=C(O)CCCN1CCC[C@H]1COc1ccc(Cc2ccccc2)cc1` [Example 3, 4-[(S)-2-(4-benzyl-phenoxymethyl)-pyrrolidin-1-yl]-butyric acid], for which the IC50 in the assay with human whole blood and at human LTA4 hydrolase (setting [1]) was under 5 µM each time.

With `Clc1ccc(-c2ccc(Cc3ccc(OC[C@H]4CCCN4)cc3)cc2)s1` [Example 111, (R)-2-{4-[4-(5-chloro-thiophen-2-yl)-benzyl]-phenoxymethyl}-pyrrolidine hydrogen chloroide salt], the IC50 in the assay with human whole blood and on human LTA4 hydrolase (setting [1]) was under 5 µM throughout.

Regarding `O=C(O)CCC[N+]1([O-])CCC[C@H]1COc1ccc(Oc2ccc(Cl)cc2)cc1` (stereo partly drawn) [Example 70, 4-{(S)-2-[4-(4-Chloro-phenoxy)-phenoxymethyl]-1-hydroxy-pyrrolidin-1-yl}-butyric acid], the IC50 in the assay on human whole blood is 5 to 20 µM; on human LTA4 hydrolase (setting [1]), under 5 µM.

Take `c1csc(-c2ccc(Cc3ccc(OC[C@H]4CCCN4)cc3)cc2)c1` [Example 107, (R)-2-[4-(2-thiophen-benzyl)-phenoxymethyl]-pyrrolidine hydrogen chloride salt]: the IC50 in the assay on human whole blood and on human LTA4 hydrolase (setting [1]) was under 5 µM throughout.

`c1ccc(Oc2ccc(OC[C@H]3CCCCN3)cc2)cc1` [Example 50, (R)-2-(4-Phenoxy-phenoxymethyl)-piperidine hydrochloride]: the IC50 in the assay on human whole blood and at human LTA4 hydrolase (setting [1]) was under 5 µM throughout.

Consider `COC(=O)CCCN1CCC[C@@H]1COc1ccc(Cc2ccccc2)cc1` [Example 8, 4-[(R)-2-(4-benzyl-phenoxymethyl)-pyrrolidin-1-yl]-butyric acid methyl ester], for which the IC50 in the assay on human whole blood and at human LTA4 hydrolase (setting [1]) was under 5 µM in each case.

For `c1ccc(-c2ccc(Oc3ccc(OC[C@H]4CCCCN4)cc3)cc2)cc1` [Example 54, (R)-2-[4-(Biphenyl-4-yloxy)-phenoxymethyl]-piperidine hydrochloride], the IC50 in the assay on human whole blood and on human LTA4 hydrolase was under 5 µM each time.

With `c1cc(-c2ccc(Oc3ccc(OC[C@H]4CCCN4)cc3)cc2)cs1` [Example 130, (R)-2-[4-(4-Thiophen-3-yl-phenoxy)-phenoxymethyl]-pyrrolidine-1-hydrogen chloride salt], the IC50 is under 5 µM in the assay with human whole blood and 5 to 20 µM at human LTA4 hydrolase (setting [1]).

`O=C(O)CCCN1CCC[C@@H]1COc1ccc(Oc2ccc(C(F)(F)F)cc2)cc1` [Example 30, (R)-2-[4-(4-trifluoromethyl-phenoxy)-phenoxymethyl]-pyrrolidine-1-yl}butyric acid sodium salt]: the IC50 with human whole blood and at human LTA4 hydrolase (setting [1]) was under 5 µM in each case.

Take `c1ccc(CCc2ccc(OC[C@H]3CCCN3)cc2)cc1` [Example 135, (R)-2-(4-Phenethyl-phenoxymethyl)-pyrrolidine]: the IC50 in the assay on human whole blood and at human LTA4 hydrolase (setting [1]) was 5 to 20 µM throughout.

`CS(=O)(=O)NCCCN1CCC[C@H]1COc1ccc(Oc2ccc(Cl)cc2)cc1` [Example 39, N-(3-{(S)-2-[4-(4-Chloro-phenoxy)-phenoxymethyl]-pyrrolidin-1-yl}-propyl)-methanesulfonamide HCl]: the IC50 in the assay with human whole blood and at human LTA4 hydrolase (setting [1]) was under 5 µM each time.
